According to patent US3932646A, “Pharmaceutical compositions containing unsymmetrical esters of 1,4-dihydropyridine 3,5-dicarboxylate” (Farbenfabriken Bayer AG, priority 1971, dated 1976):

Assays:
Assay type in all cases: in vivo
[1] = Toxicity (Mouse), conventional LD50 determination p.o.; details: in vivo, po
Source text: (§1) The pharmacological properties of these compounds are conveniently observed in well-known animal models which parallel the desired clinical response. Similarly toxicity is low, as measured for example in the conventional LD50 determination.

coronary vessels = experiment: Dosage at which a coronary effect is observed, i.v.; details: for minimal effective dose: iv
hypertensive rat = experiment: Blood pressure effect on hypertensive rat p.o.; details: given as "from" dose; for minimal effective dose: po, read-out: Blood pressure effect on hypertensive rat (dose from which the effect is seen)
Source text: as §1

Mouse = experiment: Toxicity (Mouse), conventional LD50 determination p.o.
Source text: as §1

SMILES: C=CCOC(=O)C1=C(C)NC(C)=C(C(=O)OCC)C1c1ccccc1C (stereo not shown) [Example 1, 2,6-dimethyl-4-(2'-methylphenyl)-1,4-dihydropyridine-3,5-dicarboxylic acid 3-ethyl ester-5-allyl ester]
- LD50 [1]: > 3000 mg/kg
- minimal effective dose (coronary vessels): 0.05 mg/kg
- minimal effective dose (hypertensive rat): ≥ 10 mg/kg

SMILES: C#CCOC(=O)C1=C(C)NC(C)=C(C(=O)OCC)C1c1ccccc1C (stereo not shown) [Example 2, 2,6-dimethyl-4-(2'-methylphenyl)-1,4-dihydropyridine-3,5-dicarboxylic acid 3-ethyl ester-5-propargyl ester]
- LD50 [1]: 800 mg/kg
- minimal effective dose (coronary vessels): 0.01 mg/kg
- minimal effective dose (hypertensive rat): ≥ 10 mg/kg

SMILES: C=CCOC(=O)C1=C(C)NC(C)=C(C(=O)OC)C1c1ccccc1F (stereo not shown) [Example 3, 2,6-dimethyl-4-(2'-fluorophenyl)-1,4-dihydropyridine-3,5-dicarboxylic acid 3-methyl ester-5-allyl ester]
- LD50 [1]: 800 mg/kg
- minimal effective dose (coronary vessels): 0.01 mg/kg
- minimal effective dose (hypertensive rat): ≥ 3.1 mg/kg

SMILES: C#CCOC(=O)C1=C(C)NC(C)=C(C(=O)OCC)C1c1ccccc1C(F)(F)F (stereo not shown) [Example 4, 2,6-dimethyl-4-(2'-trifluoromethylphenyl)-1,4-dihydropyridine-3,5-dicarboxylic acid 3-ethyl ester-5-propargyl ester]
- Toxicity (Mouse) LD50 (Mouse): 200 mg/kg
- Dose at which a coronary effect is observed (coronary vessels): 0.005 mg/kg
- minimal effective dose (hypertensive rat): ≥ 1 mg/kg

SMILES: C=CCOC(=O)C1=C(C)NC(C)=C(C(=O)OCC)C1c1ccccc1C(F)(F)F (stereo not shown) [Example 5, 2,6-dimethyl-4-(2'-trifluoromethylphenyl)-1,4-dihydropyridine-3,5-dicarboxylic acid 3-ethyl ester-5-allyl ester]
- LD50 [1]: 630 mg/kg
- minimal effective dose (coronary vessels): 0.001 mg/kg
- minimal effective dose (hypertensive rat): ≥ 3.1 mg/kg

SMILES: C#CCOC(=O)C1=C(C)NC(C)=C(C(=O)OC)C1c1ccccc1C(F)(F)F (stereo not shown) [Example 6, 2,6-dimethyl-4-(2'-trifluoromethylphenyl)-1,4-dihydropyridine-3,5-dicarboxylic acid 3-methyl ester-5-propargyl ester]
- LD50 [1]: 200 mg/kg
- minimal effective dose (coronary vessels): 0.005 mg/kg
- minimal effective dose (hypertensive rat): ≥ 0.3 mg/kg

SMILES: CCCOCCOC(=O)C1=C(C)NC(C)=C(C(=O)OCC)C1c1ccccc1OC (stereo not drawn) [Example 7, 2,6-dimethyl-4-(2'-methoxyphenyl)-1,4-dihydropyridine-3,5-dicarboxylic acid 3-ethyl ester-5-β-propoxyethyl ester]
- LD50 [1]: > 3000 mg/kg
- minimal effective dose (coronary vessels): 0.05 mg/kg
- minimal effective dose (hypertensive rat): ≥ 31.5 mg/kg

SMILES: C=CCOC(=O)C1=C(C)NC(C)=C(C(=O)OCC)C1c1ccccc1Cl (stereo not shown) [Example 8, 2,6-dimethyl-4-(2'-chlorophenyl)-1,4-dihydropyridine-3,5-dicarboxylic acid 3-ethyl ester-5-allyl ester]
- LD50 [1]: 630 mg/kg
- minimal effective dose (coronary vessels): 0.01 mg/kg
- minimal effective dose (hypertensive rat): ≥ 1 mg/kg

SMILES: C=CCOC(=O)C1=C(C)NC(C)=C(C(=O)OCC)C1c1ccc(OC)c(OC)c1OC (stereo not shown) [Example 9, 2,6-dimethyl-4-(2', 3', 4'-trimethoxyphenyl)-1,4-dihydropyridine-3,5-dicarboxylic acid 3-ethyl ester-5-allyl ester]
- LD50 [1]: 3000 mg/kg

SMILES: C=CCOC(=O)C1=C(C)NC(C)=C(C(=O)OC)C1c1cc(Br)c(OC)c(OC)c1 (stereo not shown) [Example 10, 2,6-dimethyl-4-(3', 4'-dimethoxy-5-bromophenyl)-1,4-dihydropyridine-3,5-dicarboxylic acid 3-methyl ester-5-allyl ester]
- LD50 [1]: > 3000 mg/kg
- minimal effective dose (coronary vessels): 5 mg/kg

SMILES: C#CCOC(=O)C1=C(C)NC(C)=C(C(=O)OC)C1c1ccccc1OC (stereo not shown) [Example 11, 2,6-dimethyl-4-(2'-methoxyphenyl)-1,4-dihydropyridine-3,5-dicarboxylic acid 3-propargyl ester 5-methyl ester]
- LD50 [1]: > 3000 mg/kg
- minimal effective dose (coronary vessels): 0.05 mg/kg
- minimal effective dose (hypertensive rat): ≥ 10 mg/kg

SMILES: C#CCOC(=O)C1=C(C)NC(C)=C(C(=O)OC)C1c1ccccc1C(F)(F)F (stereo not shown) [Example 12, 2,6-dimethyl-4-(2'-trifluoromethylphenyl)-1,4-dihydropyridine 3,5-dicarboxylic acid 3-propargyl ester 5-methyl ester]
- Toxicity (Mouse) LD50 (Mouse): 100 mg/kg
- Dose at which a coronary effect is observed (coronary vessels): 0.003 mg/kg
- Blood pressure effect on hypertensive rat (dose from which the effect is seen) (hypertensive rat): ≥ 0.3 mg/kg

SMILES: C#CCOC(=O)C1=C(C)NC(C)=C(C(=O)OCC)C1c1ccccc1C(F)(F)F (stereo not shown) [Example 13, 2,6-dimethyl-4-(2'-trifluoromethylphenyl)-1,4-dihydropyridine-3,5-dicarboxylic acid 3-propargyl ester 5-ethyl ester]
- Toxicity (Mouse) LD50 (Mouse): 2000 mg/kg
- Dose at which a coronary effect is observed (coronary vessels): 0.05 mg/kg
- Blood pressure effect on hypertensive rat (dose from which the effect is seen) (hypertensive rat): ≥ 1.0 mg/kg

SMILES: CCOC(=O)C1=C(C)NC(C)=C(C(=O)OCCOC)C1c1ccccc1Cl (stereo not drawn) [Example 14, 2,6-dimethyl-4-(2'-chlorophenyl)-1,4-dihydropyridine 3,5-dicarboxylic acid 3-β-methoxyethyl ester 5-ethyl ester]
- LD50 [1]: 1000 mg/kg
- minimal effective dose (coronary vessels): 0.01 mg/kg
- minimal effective dose (hypertensive rat): ≥ 3.1 mg/kg

SMILES: C=CCOC(=O)C1=C(C)NC(C)=C(C(=O)OC(C)C)C1c1cccc(C(F)(F)F)c1 (stereo not shown) [Example 15, 2,6-dimethyl-4-(3'-trifluoromethylphenyl)-1,4-dihydropyridine-3,5-dicarboxylic acid 3-isopropyl ester 5-allyl ester]
- LD50 [1]: > 3000 mg/kg
- minimal effective dose (coronary vessels): 0.05 mg/kg
- minimal effective dose (hypertensive rat): ≥ 3.1 mg/kg

SMILES: C#CCOC(=O)C1=C(C)NC(C)=C(C(=O)OC)C1c1ccccc1F (stereo not shown) [Example 16, 2,6-dimethyl-4-(2'-fluorophenyl)-1,4-dihydropyridine-3,5-dicarboxylic acid 3-propargyl ester 5-methyl ester]
- LD50 [1]: 200 mg/kg
- minimal effective dose (coronary vessels): 0.05 mg/kg
- minimal effective dose (hypertensive rat): ≥ 10 mg/kg

SMILES: C=CCOC(=O)C1=C(C)NC(C)=C(C(=O)OCC)C1c1cccc(Cl)c1 (stereo not shown) [Example 17, 2,6-dimethyl-4-(3'-chlorophenyl)-1,4-dihydropyridine-3,5-dicarboxylic acid 3-allyl ester 5-ethyl ester]
- LD50 [1]: > 3000 mg/kg
- minimal effective dose (coronary vessels): 0.01 mg/kg
- minimal effective dose (hypertensive rat): ≥ 10 mg/kg

SMILES: C#CCOC(=O)C1=C(C)NC(C)=C(C(=O)OCC)C1c1ccccc1OC (stereo not shown) [Example 18, 2,6-dimethyl-4-(2'-methoxyphenyl)-1,4-dihydropyridine-3,5-dicarboxylic acid 3-propargyl ester 5-ethyl ester]
- LD50 [1]: 3000 mg/kg
- minimal effective dose (coronary vessels): 0.05 mg/kg
- minimal effective dose (hypertensive rat): ≥ 10 mg/kg

SMILES: C#CCOC(=O)C1=C(C)NC(C)=C(C(=O)OCC)C1c1ccc(C(=O)OCC)cc1 (stereo not shown) [Example 19, 2,6-dimethyl-4-(4'-carboxyethylphenyl)-1,4-dihydropyridine-3,5-dicarboxylic acid 3-propargyl ester 5-ethyl ester]
- LD50 [1]: 3000 mg/kg
